Assays:
[1] = system: ATXN3 transcripts containing exon 4; test: ATXN3 Quantitative Splicing Assay (qPCR, E4E5 primers/probe); assay type: cell-based; conditions: Homo sapiens, SK-N-MC cells, compounds for 24 h
Procedure: Example 34: ATXN3 Quantitative Splicing Assay
Human neuroblastoma SK-N-MC cells were plated in 384-well plates at 20,000 cells/well. Twenty-four hours after plating, cells were treated with compounds for 24 h at appropriate concentrations ranging from 30 μM to 0.6 nM (0.300 DMSO). Treated cells were lysed in 15 μL of lysis buffer, and cDNA was synthesized using the Fast Advanced Cells-to-Ct kit. Two […] of each cDNA was used in qPCR reactions to confirm the exon 4 skipped transcripts of ATXN3. A second set of primers/probe E4E5 was used to detect the transcripts containing exon 4. The third set of primers/probe E8E9 was used to detect total gene level of ATXN3. The qPCR reactions were prepared in 384-well plates in 10 μL volume, using TaqMan™ Fast Advanced Master Mix with primers and probes shown in the table below. Reactions were run in a Quant Studio 6 qPCR instrument with default settings.
The primers and probes are listed below in Table 4.

total ATXN3 protein = test: ATXN3 Total Protein Assay (Mesoscale Discovery, SK-N-MC cells); assay type: cell-based, Human; conditions: incubation for 48 hours, MSD assay
Procedure: Example 35: ATXN3 Total Protein Assay
Human neuroblastoma SK-N-MC cells were seeded at 10,000 cells/well in 384 well plates one day prior to compound treatment. The concentrations of compounds were tested at appropriate doses ranging from 30 μM to 0.6 nM. After incubation for 48 hours, the cells were lysed with 25 μL of lysis buffer containing protease inhibitors, and total ATXN3 protein levels were assessed by Mesoscale Discovery (MSD) assay developed with one pair of anti-ATXN3 antibodies. The capture and detect antibodies were raised in mouse and rabbit respectively. Anti-rabbit MSD-ST antibody was used for secondary antibody.
ATXN3 recombinant protein was used for standards. The readouts were captured with 35 μL of MSD read buffer and multi-array 384-well high binding plates.

ATXN3-HiBiT protein = test: ATXN3 Total Protein Assay (Kelly-ATXN3-HiBiT luminescence); assay type: cell-based; conditions: Kelly-ATXN3-HiBiT cells, 48 h after addition of compound
How it was run: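 Kelly cells with homozygous C-terminal HiBiT knock-in on endogenous ATXN3, 2000 per well, dosed 24 h after seeding. HiBiT lytic luminescence read 48 h after compound; sister plate read with CellTiter-Glo for viability; fold change vs DMSO.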

| Structure (SMILES) | IC50 [1] [nM] | IC50 (total ATXN3 protein) [nM] | EC50 (ATXN3-HiBiT protein) [nM] |
| --- | --- | --- | --- |
| C#Cc1c(C[C@@H](N)[C@H](C)F)oc2c(NCc3ccco3)cc(Cl)nc12 [Compound 122, 2-[(2R,3S)-2-amino-3-fluorobutyl]-5-chloro-3-ethynyl-7-(furfurylamino)-1-oxa-4-azaindene] | 0.01 to 100 | 0.01 to 100 | 0.01 to 100 |
| C[C@H](N)Cc1oc2c(NCc3cccs3)cc(Cl)nc2c1-c1ncco1 [Compound 262, 2-[(S)-2-aminopropyl]-5-chloro-3-(1,3-oxazol-2-yl)-7-thenylamino-1-oxa-4-azaindene] | 101 to 500 | 101 to 500 | 101 to 500 |
| C[C@H](N)Cc1oc2c(NCc3cccs3)cc(Cl)nc2c1-c1ccoc1 [Compound 328, 2-[(S)-2-aminopropyl]-5-chloro-3-(3-furyl)-7-thenylamino-1-oxa-4-azaindene] | 10000 to 40000 | 10000 to 40000 | 10000 to 40000 |
| C[C@H](N)Cc1oc2c(NCc3cccs3)cc(Cl)nc2c1-c1cnco1 [Compound 310] | 101 to 500 | 101 to 500 | 101 to 500 |
| C[C@H](F)[C@H](N)Cc1oc2c(NCc3cccs3)cc(C#N)nc2c1Br [Compound 103, 2-[(2R,3S)-2-amino-3-fluorobutyl]-3-bromo-7-thenylamino-1-oxa-4-aza-5-indenecarbonitrile] | 101 to 500 | 101 to 500 | 101 to 500 |
| C[C@H](N)Cc1oc2c(NCc3cccs3)cc(Cl)nc2c1-c1ccsc1 [Compound 260, 2-[(S)-2-aminopropyl]-5-chloro-7-thenylamino-3-(3-thienyl)-1-oxa-4-azaindene] | 10000 to 40000 | 501 to 5000 | 10000 to 40000 |
| C[C@H](F)[C@H](N)Cc1oc2c(NCc3cccs3)c(F)c(Cl)nc2c1Br [Compound 277, 2-[(2R,3S)-2-amino-3-fluorobutyl]-3-bromo-5-chloro-6-fluoro-7-thenylamino-1-oxa-4-azaindene] | 501 to 5000 | 501 to 5000 | 501 to 5000 |
| C#Cc1c(C[C@H](C)N)oc2c(NCc3nccs3)cc(Cl)nc12 [Compound 62, 2-[(S)-2-aminopropyl]-5-chloro-3-ethynyl-7-{[(1,3-thiazol-2-yl)methyl]amino}-1-oxa-4-azaindene] | 101 to 500 | 101 to 500 | 0.01 to 100 |
| Cc1c(C[C@H](C)N)oc2c(NCc3nccs3)cc(Cl)nc12 [Compound 9, 2-[(S)-2-aminopropyl]-5-chloro-3-methyl-7-{[(1,3-thiazol-2-yl)methyl]amino}-1-oxa-4-azaindene] | 501 to 5000 | 501 to 5000 |  |
| Cc1c(C[C@H](C)N)oc2c(NCc3ccc(F)s3)cc(Cl)nc12 [Compound 12, 2-[(S)-2-aminopropyl]-5-chloro-7-{[(5-fluoro-2-thienyl)methyl]amino}-3-methyl-1-oxa-4-azaindene] | 501 to 5000 | 501 to 5000 |  |
| Cc1coc2c(NCc3ccncc3)cc(Cl)nc12 [Compound 5, [(4-pyridyl)methyl](5-chloro-3-methyl-1-oxa-4-aza-7-indenyl)amine] | 10000 to 40000 | 10000 to 40000 |  |
| CC(N)Cc1cc2nc(Cl)cc(NCc3ccncc3)c2o1 (stereo not shown) [Compound 1, 2-(2-aminopropyl)-5-chloro-7-{[(4-pyridyl)methyl]amino}-1-oxa-4-azaindene] | 10000 to 40000 | 10000 to 40000 |  |
| C[C@H](N)Cc1oc2c(NCc3ccco3)cc(Cl)nc2c1Cl [Compound 54, 2-[(S)-2-aminopropyl]-3,5-dichloro-7-(furfurylamino)-1-oxa-4-azaindene] | 101 to 500 | 0.01 to 100 |  |
| Clc1cc(NCc2ccncc2)c2occc2n1 [Compound 6, 5-chloro-N-(pyridin-4-ylmethyl)furo[3,2-b]pyridin-7-amine] | 10000 to 40000 | 10000 to 40000 |  |
| C[C@H](N)Cc1oc2c(NCc3cccs3)cc(Cl)nc2c1C1CC1 [Compound 19, 2-[(2S)-2-aminopropyl]-5-chloro-3-cyclopropyl-N-(thiophen-2-ylmethyl)furo[3,2-b]pyridin-7-amine] | 101 to 500 | 101 to 500 |  |

Further lines, results first:

| IC50 [1] [nM] | IC50 (total ATXN3 protein) [nM] | EC50 (ATXN3-HiBiT protein) [nM] | Structure (SMILES) |
| --- | --- | --- | --- |
| 0.01 to 100 | 0.01 to 100 | 0.01 to 100 | C#Cc1c(C[C@@H](N)COC(F)F)oc2c(NCc3cccs3)cc(Cl)nc12 [Compound 196, 2-[(R)-2-amino-3-difluoromethoxypropyl]-5-chloro-3-ethynyl-7-thenylamino-1-oxa-4-azaindene] |
| 501 to 5000 | 501 to 5000 | 501 to 5000 | C[C@H](O)Cc1oc2c(NCc3cccs3)cc(Cl)nc2c1Br [Compound 213, (S)-1-(3-bromo-5-chloro-7-thenylamino-1-oxa-4-aza-2-indenyl)-2-propanol] |
| 101 to 500 | 101 to 500 | 101 to 500 | N[C@@H](CCOC(F)F)Cc1oc2c(NCc3nccs3)cc(Cl)nc2c1Br [Compound 216, 2-[(S)-2-amino-4-difluoromethoxybutyl]-3-bromo-5-chloro-7-{[(1,3-thiazol-2-yl)methyl]amino}-1-oxa-4-azaindene] |
| 0.01 to 100 | 0.01 to 100 | 0.01 to 100 | N[C@@H](CF)Cc1oc2c(NCc3cccs3)cc(Cl)nc2c1Br [Compound 58, 2-[(R)-2-amino-3-fluoropropyl]-3-bromo-5-chloro-7-thenylamino-1-oxa-4-azaindene] |
| 101 to 500 | 101 to 500 | 101 to 500 | N[C@@H](CCF)Cc1oc2c(NCc3cccs3)cc(Cl)nc2c1Br [Compound 145, 2-[(R)-2-amino-4-fluorobutyl]-3-bromo-5-chloro-7-thenylamino-1-oxa-4-azaindene] |
| 501 to 5000 | 501 to 5000 | 501 to 5000 | CC(C)(N)Cc1oc2c(NCc3cccs3)cc(Cl)nc2c1Br [Compound 226, 2-(2-amino-2-methylpropyl)-3-bromo-5-chloro-7-thenylamino-1-oxa-4-azaindene] |
| 501 to 5000 | 101 to 500 | 501 to 5000 | CC#C[C@H](N)Cc1oc2c(NCc3cccs3)cc(Cl)nc2c1Br [Compound 132, 2-[(R)-2-amino-3-pentynyl]-3-bromo-5-chloro-7-thenylamino-1-oxa-4-azaindene] |
| 101 to 500 | 501 to 5000 | 501 to 5000 | Cc1c(C[C@@H](N)[C@H](C)F)oc2c(NCc3ccc(F)s3)cc(Cl)nc12 [Compound 105, 2-[(2R,3S)-2-amino-3-fluorobutyl]-5-chloro-7-{[(5-fluoro-2-thienyl)methyl]amino}-3-methyl-1-oxa-4-azaindene] |
| 501 to 5000 | 501 to 5000 | 501 to 5000 | C[C@@H](F)[C@H](N)Cc1oc2c(NCc3sccc3F)cc(Cl)nc2c1Br [Compound 97, 2-[(2R,3R)-2-amino-3-fluorobutyl]-3-bromo-5-chloro-7-{[(3-fluoro-2-thienyl)methyl]amino}-1-oxa-4-azaindene] |
| 501 to 5000 | 501 to 5000 | 501 to 5000 | C[C@@H](F)[C@H](N)Cc1oc2c(NCc3nccs3)cc(Cl)nc2c1Br [Compound 91, 2-[(2R,3R)-2-amino-3-fluorobutyl]-3-bromo-5-chloro-7-{[(1,3-thiazol-2-yl)methyl]amino}-1-oxa-4-azaindene] |
| 501 to 5000 | 501 to 5000 | 501 to 5000 | N[C@@H](Cc1oc2c(NCc3cccs3)cc(Cl)nc2c1Br)[C@@H]1CCOC1 (single isomer, unassigned) [Compound 214] |
| 0.01 to 100 | 0.01 to 100 | 0.01 to 100 | COC[C@H](N)Cc1oc2c(NCc3cccs3)cc(Cl)nc2c1Br [Compound 37, 2-[(R)-2-amino-3-methoxypropyl]-3-bromo-5-chloro-7-thenylamino-1-oxa-4-azaindene] |
| 101 to 500 | 0.01 to 100 |  | COC[C@H](N)Cc1oc2c(NCc3ccco3)cc(Cl)nc2c1Br [Compound 38, 2-[(R)-2-amino-3-methoxypropyl]-3-bromo-5-chloro-7-(furfurylamino)-1-oxa-4-azaindene] |
| 501 to 5000 | 501 to 5000 |  | Cc1c(C[C@@H](N)CC(F)(F)F)oc2c(NCc3cccs3)cc(Cl)nc12 [Compound 30, 2-[(R)-2-amino-4,4,4-trifluorobutyl]-5-chloro-3-methyl-7-thenylamino-1-oxa-4-azaindene] |
| 501 to 5000 | 501 to 5000 |  | Cc1c(C[C@@H](N)[C@@H](C)F)oc2c(NCc3cccs3)cc(Cl)nc12 [Compound 42, 2-[(2R,3R)-2-amino-3-fluorobutyl]-5-chloro-3-methyl-7-thenylamino-1-oxa-4-azaindene] |
| 101 to 500 | 101 to 500 |  | COC[C@H](N)Cc1oc2c(NCc3nccs3)cc(Cl)nc2c1Br [Compound 49, 2-[(R)-2-amino-3-methoxypropyl]-3-bromo-5-chloro-7-{[(1,3-thiazol-2-yl)methyl]amino}-1-oxa-4-azaindene] |

Reference: US20260001889A1, “COMPOSITIONS USEFUL FOR MODULATING SPLICING” (Skyhawk Therapeutics, Inc., priority 2022, published 2026)
